Legend:
Assay type in all cases: physicochemical
[1] = Bulk density (PT-SV100 Scott Volumeter); conditions: after roller compaction vs starting non-compacted quercetin
From the text: The bulk density, also called apparent density, can be defined as the ratio of the mass to the volume of an untapped powder sample, as “poured”. The bulk density is given in grams per millilitre (g/ml) and is typically calculated by “pouring” a known mass of powder into a graduated cylinder. Bulk density and tapped density can be measured according to the method disclosed in the European Pharmacopoeia section 2.9.34 (Bulk density and tapped density of powders), for example, the bulk density may be measured using the PT-SV100 Scott Volumeter and the tapped density may be measured using the PT-TD200 Tap Density Tester (Pharma Test Apparatebau AG, Germany). The bulk density was measured using a PT-SV100 Scott Volumeter (Pharma Test) and the tapped density was measured using a PT-TD200 Tap Density Tester (Pharma Test).

[2] = Carr index (compressibility index), powder flowability; conditions: for Compressibility (Carr Index): calculated from bulk and tapped density; for Flowability (type of flow according to Table 1): classification by Carr index / Hausner ratio
Method: The Carr index, also called Carr's index or compressibility index, is calculated according to the following formula: Free flowing powders have smaller values of the Carr index than poor flowing powders. In general, a Carr index greater than 25 is considered to be an indication of poor flowability, and below 15, of good flowability. The relationship between Carr index and/or Hausner ratio with powder flowability is well recognized in the art, for example, as disclosed by M. E. Aulton, in “Powder flow”, chapter 12 of the well-recognized reference book in pharmaceutical technology “Aulton's Pharmaceutics. The design and manufacture of medicines”, Fifth Edition 2018, M. E. Aulton and K. M. G. Taylor, Editors, Elsevier Ltd, as summarized in Table 1: Carr index was calculated from the bulk and tapped density measured values, using the following formula: […]

[3] = Angle of repose; conditions: tan^-1 (height/radius) of cone after pouring
From the text: The “angle of repose” is another parameter for indirectly quantifying powder flowability. It is the angle at which a material will rest on a stationary heap, specifically, is the angle formed by the heap slope and the horizontal plane. It may be calculated by different methods, commonly, just pouring the material on a flat surface. It also can be calculated as “drained angle of repose”, as the angle measured on the internal conical face of a material which has been formed when drained from an orifice of a flat-bottomed container to the horizontal. A dynamic angle of repose can also be used, which is the angle to the horizontal of the free surface formed in a relatively slowly rotating drum (Aulton, op. cit., pg. 197). In this case, the lower the value of the angle of repose, the higher the flowability of the material. It is generally considered that an angle of repose higher than 45 correlates with poor flowability, whereas an angle of repose under 30 correlates with excellent flowability. The angle of repose was determined by measuring the radius and the height of the cone formed after pouring the powder, using the formula tan^−1 (height/radius).

[4] = Solubility compared to non-compacted quercetin; conditions: compared to standard
From the text: It is advantageous, as the poor solubility of quercetin is one of the drawbacks of this substance, as it impairs its biological availability and, consequently, its therapeutic activity.

[5] = Tapped density (PT-TD200 Tap Density Tester); conditions: after mechanical tapping
Method: On the other hand, tapped density, also called compacted density, of a powder is the ratio of the mass of the powder to the volume occupied by the powder after it has been tapped for a defined period of time. Tapped density is measured by first gently introducing a known sample mass into a graduated cylinder and carefully levelling the powder without compacting it. The cylinder is then mechanically tapped by raising the cylinder and allowing it to drop under its own weight using a suitable mechanical tapped density tester that provides a suitable fixed drop distance and nominal drop rate Bulk density and tapped density can be measured according to the method disclosed in the European Pharmacopoeia section 2.9.34 (Bulk density and tapped density of powders), for example, the bulk density may be measured using the PT-SV100 Scott Volumeter and the tapped density may be measured using the PT-TD200 Tap Density Tester (Pharma Test Apparatebau AG, Germany). The bulk density was measured using a PT-SV100 Scott Volumeter (Pharma Test) and the tapped density was measured using a PT-TD200 Tap Density Tester (Pharma Test).

[6] = Hausner ratio, powder flowability; conditions: calculated from bulk and tapped density
Method: Hausner ratio is also predictive of powder flow, and is calculated according to the following formula: In this case, a Hausner ratio greater than 1.34 is generally considered to be an indication of poor flowability. The relationship between Carr index and/or Hausner ratio with powder flowability is well recognized in the art, for example, as disclosed by M. E. Aulton, in “Powder flow”, chapter 12 of the well-recognized reference book in pharmaceutical technology “Aulton's Pharmaceutics. The design and manufacture of medicines”, Fifth Edition 2018, M. E. Aulton and K. M. G. Taylor, Editors, Elsevier Ltd, as summarized in Table 1: Hausner ratio was also calculated using bulk and tapped density values, according to the following formula: […]

| Increase of bulk density [1] | Compressibility (Carr Index) [2] | Flowability (type of flow according to Table 1) [2] | Angle of repose [3] | Solubility [4] | Tapped density [5] | Hausner ratio [6] | Structure (SMILES) |
| --- | --- | --- | --- | --- | --- | --- | --- |
| about 200% | 8.45 | excellent | 25-30° | improved | 0.71 g/mL | 1.09 | O=c1c(O)c(-c2ccc(O)c(O)c2)oc2cc(O)cc(O)c12 [Compacted quercetin, 3,3′,4′,5,7-pentahydroxyflavone] |
| – | 52.27 | very, very poor | >45° | – | 0.44 g/mL | 2.10 | O=c1c(O)c(-c2ccc(O)c(O)c2)oc2cc(O)cc(O)c12 [Non-compacted quercetin, 3,3′,4′,5,7-pentahydroxyflavone, reference compound] |

Source: patent US12516034B2, “Process for preparing high-density quercetin” (TRADICHEM INDUSTRIAL SERVICES, S.L., priority 2022, dated 2026)
